Patent publication US20090301508A1, “Cosmetic Composition and Preparation Method and Use Thereof” (priority 2006, published 2009)
Counter-ions that a name gives are not always drawn.

Tests used:
M cells = assay: tissue culture experiments, growth of M cells / collagen fiber network; assay type: cell-based; details: vs control group (P>0.05)
Excerpt: The difference in comparison with the control group is statistically significant ([…]).

[1] = tested on: philo-pleochromatic akaryocytes in animal marrow; assay: Micronucleus Test; assay type: in vivo, mice; details: positive control 40 mg/kg; for Micronucleated Cells No.: 5000 cells tested
Experimental: 2.2 Preparation of sample: Sample 5000, 2500 or 1250 mg was weighted and grinded. Distilled water was added into the grinded sample to 20 ml, and the mixture was blended sufficiently to form a test sample.
2.3 Animal subject: Kunming species of mice, 25-30 g, provided by experimental animal department, Fudan University. Certificate No.: 02-22-1.
2.5.1 Animals were divided randomly into 5 groups, 10 in each group with half of female and half of male. In the five groups, there were three groups for three doses of test sample, one negative control group, distilled water, and one positive control group, cyclophosphaide.
2.5.2. Animals were weighted and administrated with the test sample or control substances in different concentrations in a volume of 0.4 ml/20 g via an intragastric catheter, and the administration is repeated once more in 30 hr.
2.5.3 Animals were sacrificed via cervical bertebra dislocation 6 hr. after the second intragastric administration. The marrow was taken out of the femoral bone and blended uniformly with calf serum. Then, the film preparation, the fixation, and Giemasa stain were undertaken conventionally.
2.5.4 Test under microscope: Numbers of micronuclei were counted in over one thousand of philo-pleochromatic akaryocytes. Incidence rates of micronuclei were calculated and analyzed statistically.

spermatozoa = assay: Teratospermia Test; assay type: in vivo, mice; details: positive control 40 mg/kg
Experimental: 3.2 Preparation of sample: Sample 5000, 2500 or 1250 mg was weighted and grinded. Distilled water was added into the grinded sample to 20 ml, and the mixture was blended sufficiently to obtain a test sample.
3.3 Animal subject: Male mice, depuratory grade, 25-30 g, provided by experimental animal department, Fudan University. Certificate No.: 02-22-1.
3.5.1 Animals were divided randomly into 5 groups, 5 in each group. It the five groups, there were three groups for three doses of test sample, one negative control group, distilled water, and one positive control group, cyclophosphaide.
3.5.2. Animals were weighted and administrated with the test sample or control substances in different concentrations in a volume of 0.4 ml/20 g via an intragastric catheter, once a day for 5 days.
3.5.3 Animals were sacrificed via cervical bertebra dislocation 35 days after the first intragastric administration. The ambo-epididymises were taken off and put into normal saline. After being cut into pieces, they were filtered through a four layer gauze. The filter was smeared, fixed and dyed with 2% eosin.
3.5.4 Test under microscope: Amounts of teratosperm in 1000 spernatozoas were counted per mouse and rates of teratospermia were calculated statistically.

TA100 = assay: AmesTest, strain TA100
Experimental: (§1) 4.3 Sample processing and preparation: 4000 mg sample was weighted and distilled water was added into the sample to 20 ml, then the mixture was blended to obtain a 200 mg/ml of solution. 3, 1, 0.3 and 0.1 mL of this solution were taken, respectively and each was added with sterile distilled water to 10 ml to obtain a solution in the concentration of 60 mg/ml, 20 mg/ml, 6 mg/ml and 2 mg/ml, respectively.
(§2) 4.4 Test doses: 0.2 mg/dish, 0.6 mg/dish, 2 mg/dish, 6 mg/dish and 20 mg/dish
(§3) 4.7 Test strains: TA97, TA98, TA100 and TA102, with qualitied biological characters, provided by Biochemistry Dept., California University, CA, America. The concentration of the bacteria liquid used for the test was 1-2×10^9/ml.
A healthy adult SD rat with a body weight of about 150 g was selected. Polychlorinatedbiphenyl was dissolved into corn oil to obtain a solution of 200 mg/ml. The above solution was injected (i.p.), in a sterile operation, into the rat in a dose of 500 mg/kg. 5 days later, the animal was sacrificed via decapitation. The liver was taken out and weighted, then rinsed several times with 0.15 mol/L of fresh cooled solution of potassium chloride. The amount of the potassium chloride solution was 3 ml/g liver (wet weight). The beaker in which the rinsed liver put was removed into an ice bath, and the liver was cut into pieces with a pair of sterilized scissors. […]

TA102 = assay: AmesTest, strain TA102
Experimental: as §1, §2, §3
A healthy adult SD rat with a body weight of about 150 g was selected. Polychlorinatedbiphenyl was dissolved into corn oil to obtain a solution of 200 mg/ml. The above solution was injected (i.p.), in a sterile operation, into the rat in a dose of 500 mg/kg. 5 days later, the animal was sacrificed via decapitation. The liver was taken out and weighted, then rinsed several times with 0.15 mol/L of fresh cooled solution of potassium chloride. The amount of the potassium chloride solution was 3 ml/g liver (wet weight). The beaker in which the rinsed liver put was removed into an ice bath, and the liver was cut into pieces with a pair of sterilized scissors. The liver was homogenized with a tissue homogenizer (2000 r/min, 1 min), then the liver homogenate thus prepared was centrifuged in a high speed centrifuge (0-4° C., 9000 g, 10 min). The supernatant, S9 part, was packed into several sterile tubes and conserved in liquid nitrogen. The above steps need to be operated in a sterile and cooled local circumstance. The S9 thus prepared was further identified for its content of protein and bioactivity of indirect mutagen.
Standard plate incorporation on the basis of GB15193-94: Into the top agar (45° C., 2 ml), the bacterial liquid 0.1 ml, Sample 0.1 ml and S9 mixture 0.5 ml for activation were added sequently. The mixture was blended sufficiently and poured rapidly onto the underlayer medium. After the incubation of 48 hr. at 37° C., results were observed. each test was repeated once more.

[2] = Salmonella typhimurium, 48 h, 1 μl/dish

C[C@@H]1O[C@@H](O[C@@H]2[C@@H](O)[C@H](OCCc3ccc(O)c(O)c3)O[C@H](CO)[C@H]2OC(=O)/C=C/c2ccc(O)c(O)c2)[C@H](O)[C@H](O)[C@H]1O [acteoside, Acteoside]
promotion on the growth of M cells (M cells): obvious promotion

O=P1(N(CCCl)CCCl)NCCCO1 (stereo not shown) [Cyclophosphaide]
Rate of Micronuclei (‰) ([1]; F): 25.8 ‰
Micronucleated Cells No. ([1]; F): 129
Rate of Micronuclei (‰) ([1]; M): 26.4 ‰
Micronucleated Cells No. ([1]; M): 132
Aberration rate (‰) (spermatozoa): 58.4 ‰
Type of aberration (n): Banana sharp (spermatozoa; 5000 spernatozoa tested): 32
Type of aberration (n): Double head (spermatozoa; 5000 spernatozoa tested): 4
Type of aberration (n): Double tail (spermatozoa; 5000 spernatozoa tested): 6
Type of aberration (n): Fat head (spermatozoa; 5000 spernatozoa tested): 45
Type of aberration (n): Fold tail (spermatozoa; 5000 spernatozoa tested): 2
Type of aberration (n): No crook (spermatozoa; 5000 spernatozoa tested): 28
Type of aberration (n): amorphism (spermatozoa; 5000 spernatozoa tested): 175

COS(C)(=O)=O [Methyl mesylate]
Re-established colonies (TA100; [2]): 1641 ± 80 colonies/sish
Re-established colonies (TA100; first test, TA100 −S9, positive control 1 μl/dish): 1463 ± 84 colonies/sish
Re-established colonies (TA102; [2]): 2520 ± 112 colonies/sish
Re-established colonies (TA102; first test, TA102 −S9, positive control 1 μl/dish): 2784 ± 289 colonies/sish

O=C1c2cccc(O)c2C(=O)c2c(O)cccc21 [1,8-dioxy anthraquinone]
Re-established colonies (TA102; first test, TA102 +S9, positive control 50 μl/dish): 885 ± 56 colonies/sish
Re-established colonies (TA102; second test, TA102 +S9, positive control 50 μl/dish): 975 ± 86 colonies/sish
